Measurements: PubChem BioAssay AID2060484 (Molecular Pharmacology Branch, DTP, NCI, 2025)
pIC50: −log10 of the molar value.

System: SUM149PT spheroids with HUVEC/MSC, viability
Test: Anticancer human tumor SUM149PT cell line growth inhibition [GQUAD];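 further: spheroids exposed to drugs for seven days before readout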;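 on viability, T/C: percent viability relative to DMSO vehicle control taken as 100%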
Conditions: for pIC50: curve of first compound; for viability, T/C: stronger effect = lower value
In short: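 Multi-cell-type spheroids of tumor cells with HUVEC and mesenchymal stem cells, treated with drug combinations. Concentrations descend in half-log steps from near clinical Cmax, or from 10 microM where Cmax is unknown; viability read-out.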

[1] = second compound 0.0316 µM, first compound 0.0316 µM
[2] = second compound 0.0316 µM, first compound 0.316 µM
[3] = second compound 0.1 µM, first compound 0.0316 µM
[4] = second compound 0.1 µM, first compound 0.316 µM
[5] = second compound 0.316 µM, first compound 0.0316 µM
[6] = second compound 0.316 µM, first compound 0.316 µM
[7] = second compound 1 µM, first compound 0.0316 µM
[8] = second compound 1 µM, first compound 0.316 µM
[9] = second compound 3.16 µM, first compound 0.0316 µM
[10] = second compound 3.16 µM, first compound 0.316 µM
[11] = second compound 10 µM, first compound 0.0316 µM
[12] = second compound 10 µM, first compound 0.316 µM
[13] = second compound 0.0316 µM, first compound 0.000999 µM
[14] = second compound 0.0316 µM, first compound 0.00316 µM
[15] = second compound 0.0316 µM, first compound 0.00999 µM
[16] = second compound 0.0316 µM, first compound 0.0999 µM
[17] = second compound 0.1 µM, first compound 0.000999 µM
[18] = second compound 0.1 µM, first compound 0.00316 µM
[19] = second compound 0.1 µM, first compound 0.00999 µM
[20] = second compound 0.1 µM, first compound 0.0999 µM
[21] = second compound 0.316 µM, first compound 0.000999 µM
[22] = second compound 0.316 µM, first compound 0.00316 µM
[23] = second compound 0.316 µM, first compound 0.00999 µM
[24] = second compound 0.316 µM, first compound 0.0999 µM
[25] = second compound 1 µM, first compound 0.000999 µM
[26] = second compound 1 µM, first compound 0.00316 µM
[27] = second compound 1 µM, first compound 0.00999 µM
[28] = second compound 1 µM, first compound 0.0999 µM
[29] = second compound 3.16 µM, first compound 0.000999 µM
[30] = second compound 3.16 µM, first compound 0.00316 µM
[31] = second compound 3.16 µM, first compound 0.00999 µM
[32] = second compound 3.16 µM, first compound 0.0999 µM
[33] = second compound 10 µM, first compound 0.000999 µM
[34] = second compound 10 µM, first compound 0.00316 µM
[35] = second compound 10 µM, first compound 0.00999 µM
[36] = second compound 10 µM, first compound 0.0999 µM

Q: How did the pIC50 (second compound 0.0316 µM) turn out when `COc1cc(C2c3cc4c(cc3C(OC3OC5COC(C)OC5C(O)C3O)C3COC(=O)C23)OCO4)cc(OC)c1O` (stereo unspecified) + CN(C)c1ccc(Nc2c3ccc(NC(=O)CCN4CCCC4)cc3nc3cc(NC(=O)CCN4CCCC4)ccc23)cc1 was run?
A: 5.90

Q: And the pIC50 (second compound 0.1 µM)?
A: 5.90

Q: What about the pIC50 (second compound 0.316 µM) of the same compound?
A: 5.88

Q: What about the pIC50 (second compound 1 µM) of the same compound?
A: 6.14

Q: What about the pIC50 (second compound 3.16 µM) of the same compound?
A: 6.19

Q: And the pIC50 (second compound 10 µM)?
A: 6.21

Q: What about the viability, T/C [1] of the same compound?
A: 107%

Q: What about the viability, T/C (second compound 0.0316 µM, first compound 0.1 µM) of the same compound?
A: 84.8%

Q: What about the viability, T/C [2] of the same compound?
A: 62.9%

Q: And the viability, T/C (second compound 0.0316 µM, first compound 1 µM)?
A: 55.2%

Q: And the viability, T/C (second compound 0.0316 µM, first compound 3.16 µM)?
A: 44.8%

Q: What about the viability, T/C (second compound 0.0316 µM, first compound 10 µM) of the same compound?
A: 21.6%

Q: And the viability, T/C [3]?
A: 102%

Q: What about the viability, T/C (second compound 0.1 µM, first compound 0.1 µM) of the same compound?
A: 88.8%

Q: And the viability, T/C [4]?
A: 59.5%

Q: And the viability, T/C (second compound 0.1 µM, first compound 1 µM)?
A: 55%

Q: And the viability, T/C (second compound 0.1 µM, first compound 3.16 µM)?
A: 44.7%

Q: And the viability, T/C (second compound 0.1 µM, first compound 10 µM)?
A: 21.4%

Q: What about the viability, T/C [5] of the same compound?
A: 87.8%

Q: And the viability, T/C (second compound 0.316 µM, first compound 0.1 µM)?
A: 78.1%

Q: And the viability, T/C [6]?
A: 59.8%

Q: What about the viability, T/C (second compound 0.316 µM, first compound 1 µM) of the same compound?
A: 59.5%

Q: What about the viability, T/C (second compound 0.316 µM, first compound 3.16 µM) of the same compound?
A: 40.2%

Q: What about the viability, T/C (second compound 0.316 µM, first compound 10 µM) of the same compound?
A: 18.1%

Q: What about the viability, T/C [7] of the same compound?
A: 87.4%

Q: And the viability, T/C (second compound 1 µM, first compound 0.1 µM)?
A: 75.3%

Q: And the viability, T/C [8]?
A: 54.4%

Q: What about the viability, T/C (second compound 1 µM, first compound 1 µM) of the same compound?
A: 48.1%

Q: And the viability, T/C (second compound 1 µM, first compound 3.16 µM)?
A: 36.8%

Q: And the viability, T/C (second compound 1 µM, first compound 10 µM)?
A: 20.5%

Q: And the viability, T/C [9]?
A: 86.6%

Q: And the viability, T/C (second compound 3.16 µM, first compound 0.1 µM)?
A: 74.6%

Q: And the viability, T/C [10]?
A: 49.7%

Q: What about the viability, T/C (second compound 3.16 µM, first compound 1 µM) of the same compound?
A: 48%

Q: And the viability, T/C (second compound 3.16 µM, first compound 3.16 µM)?
A: 37.4%

Q: And the viability, T/C (second compound 3.16 µM, first compound 10 µM)?
A: 17.6%

Q: And the viability, T/C [11]?
A: 85.9%

Q: And the viability, T/C (second compound 10 µM, first compound 0.1 µM)?
A: 68.5%

Q: What about the viability, T/C [12] of the same compound?
A: 49.1%

Q: And the viability, T/C (second compound 10 µM, first compound 1 µM)?
A: 48.7%

Q: What about the viability, T/C (second compound 10 µM, first compound 3.16 µM) of the same compound?
A: 41%

Q: And the viability, T/C (second compound 10 µM, first compound 10 µM)?
A: 18.3%

Q: With `CC[C@@]1(O)C(=O)OCc2c1cc1n(c2=O)Cc2cc3c(CN(C)C)c(O)ccc3nc2-1` + Cc1[nH]c2ccc(F)cc2c1-c1nc2c3cccnc3c3ncccc3c2[nH]1 as the compound, how does the pIC50 (second compound 0.0316 µM) read?
A: 7.07

Q: And the pIC50 (second compound 0.1 µM)?
A: 7.07

Q: And the pIC50 (second compound 0.316 µM)?
A: 7.10

Q: And the pIC50 (second compound 1 µM)?
A: 7.11

Q: And the pIC50 (second compound 3.16 µM)?
A: 7.07

Q: And the pIC50 (second compound 10 µM)?
A: 7.11

Q: And the viability, T/C [13]?
A: 103%

Q: And the viability, T/C [14]?
A: 89.6%

Q: What about the viability, T/C [15] of the same compound?
A: 107%

Q: And the viability, T/C [1]?
A: 85.2%

Q: And the viability, T/C [16]?
A: 43.1%

Q: And the viability, T/C [2]?
A: 45.6%

Q: What about the viability, T/C [17] of the same compound?
A: 110%

Q: And the viability, T/C [18]?
A: 105%

Q: What about the viability, T/C [19] of the same compound?
A: 104%

Q: And the viability, T/C [3]?
A: 87.3%

Q: What about the viability, T/C [20] of the same compound?
A: 42.5%

Q: And the viability, T/C [4]?
A: 45.1%

Q: And the viability, T/C [21]?
A: 97.1%

Q: What about the viability, T/C [22] of the same compound?
A: 99.7%

Q: What about the viability, T/C [23] of the same compound?
A: 106%

Q: And the viability, T/C [5]?
A: 89%

Q: And the viability, T/C [24]?
A: 40.2%

Q: What about the viability, T/C [6] of the same compound?
A: 41.5%

Q: What about the viability, T/C [25] of the same compound?
A: 114%

Q: And the viability, T/C [26]?
A: 99.8%

Q: And the viability, T/C [27]?
A: 105%

Q: And the viability, T/C [7]?
A: 80.2%

Q: What about the viability, T/C [28] of the same compound?
A: 41.5%

Q: What about the viability, T/C [8] of the same compound?
A: 40.2%

Q: What about the viability, T/C [29] of the same compound?
A: 82.7%

Q: What about the viability, T/C [30] of the same compound?
A: 97.8%

Q: What about the viability, T/C [31] of the same compound?
A: 99%

Q: And the viability, T/C [9]?
A: 91.7%

Q: And the viability, T/C [32]?
A: 43.1%

Q: And the viability, T/C [10]?
A: 44.1%

Q: And the viability, T/C [33]?
A: 96.1%

Q: And the viability, T/C [34]?
A: 86.8%

Q: And the viability, T/C [35]?
A: 108%

Q: What about the viability, T/C [11] of the same compound?
A: 85.1%

Q: What about the viability, T/C [36] of the same compound?
A: 40.5%

Q: And the viability, T/C [12]?
A: 38.7%

Q: How did the pIC50 (second compound 0.0316 µM) turn out when `CC[C@@]1(O)C(=O)OCc2c1cc1n(c2=O)Cc2cc3c(CN(C)C)c(O)ccc3nc2-1` + Cc1cnc(CNC(=O)c2c(=O)c3ccc(N4CCCN(C)CC4)nc3n3c2sc2ccccc23)cn1 was run?
A: 7.58

Q: What about the pIC50 (second compound 0.1 µM) of the same compound?
A: 7.73

Q: And the pIC50 (second compound 0.316 µM)?
A: 7.83

Q: And the pIC50 (second compound 1 µM)?
A: > 9.00

Q: What about the pIC50 (second compound 3.16 µM) of the same compound?
A: > 9.00

Q: And the pIC50 (second compound 10 µM)?
A: > 9.00

Q: And the viability, T/C [13]?
A: 90.4%

Q: And the viability, T/C [14]?
A: 71.8%

Q: And the viability, T/C [15]?
A: 77.7%

Q: What about the viability, T/C [1] of the same compound?
A: 44.9%

Q: And the viability, T/C [16]?
A: 36.1%

Q: And the viability, T/C [2]?
A: 40.4%

Q: What about the viability, T/C [17] of the same compound?
A: 60.9%

Q: And the viability, T/C [18]?
A: 66.8%

Q: What about the viability, T/C [19] of the same compound?
A: 56.8%

Q: And the viability, T/C [3]?
A: 43.5%

Q: What about the viability, T/C [20] of the same compound?
A: 44.7%

Q: And the viability, T/C [4]?
A: 44.6%

Q: And the viability, T/C [21]?
A: 48.5%

Q: What about the viability, T/C [22] of the same compound?
A: 58.3%

Q: What about the viability, T/C [23] of the same compound?
A: 55.1%

Q: And the viability, T/C [5]?
A: 38.9%

Q: And the viability, T/C [24]?
A: 42%

Q: What about the viability, T/C [6] of the same compound?
A: 45.1%

Q: And the viability, T/C [25]?
A: 38.5%

Q: And the viability, T/C [26]?
A: 44.6%

Q: And the viability, T/C [27]?
A: 45.5%

Q: What about the viability, T/C [7] of the same compound?
A: 41.5%

Q: What about the viability, T/C [28] of the same compound?
A: 37.4%

Q: What about the viability, T/C [8] of the same compound?
A: 39.3%

Q: What about the viability, T/C [29] of the same compound?
A: 38.5%

Q: What about the viability, T/C [30] of the same compound?
A: 38%

Q: And the viability, T/C [31]?
A: 40.4%

Q: What about the viability, T/C [9] of the same compound?
A: 37.1%

Q: What about the viability, T/C [32] of the same compound?
A: 36.3%

Q: And the viability, T/C [10]?
A: 35.1%

Q: What about the viability, T/C [33] of the same compound?
A: 0.4%

Q: And the viability, T/C [34]?
A: 11.1%

Q: And the viability, T/C [35]?
A: 9.79%

Q: What about the viability, T/C [11] of the same compound?
A: 11.4%

Q: And the viability, T/C [36]?
A: 2.25%

Q: And the viability, T/C [12]?
A: 2.23%
